The source of these data is patent US8710065B2, “Tricyclic inhibitors of kinases” (AbbVie Inc., priority 2011, dated 2014).

For the experiment, the target named is T1, GST-tagged-Wee1 kinase (Homo sapiens, UniProt P30291).
T1 construct: purchased Carnabio (Carna Biosciences) 05-177
T1 sequence (P30291 whole entry): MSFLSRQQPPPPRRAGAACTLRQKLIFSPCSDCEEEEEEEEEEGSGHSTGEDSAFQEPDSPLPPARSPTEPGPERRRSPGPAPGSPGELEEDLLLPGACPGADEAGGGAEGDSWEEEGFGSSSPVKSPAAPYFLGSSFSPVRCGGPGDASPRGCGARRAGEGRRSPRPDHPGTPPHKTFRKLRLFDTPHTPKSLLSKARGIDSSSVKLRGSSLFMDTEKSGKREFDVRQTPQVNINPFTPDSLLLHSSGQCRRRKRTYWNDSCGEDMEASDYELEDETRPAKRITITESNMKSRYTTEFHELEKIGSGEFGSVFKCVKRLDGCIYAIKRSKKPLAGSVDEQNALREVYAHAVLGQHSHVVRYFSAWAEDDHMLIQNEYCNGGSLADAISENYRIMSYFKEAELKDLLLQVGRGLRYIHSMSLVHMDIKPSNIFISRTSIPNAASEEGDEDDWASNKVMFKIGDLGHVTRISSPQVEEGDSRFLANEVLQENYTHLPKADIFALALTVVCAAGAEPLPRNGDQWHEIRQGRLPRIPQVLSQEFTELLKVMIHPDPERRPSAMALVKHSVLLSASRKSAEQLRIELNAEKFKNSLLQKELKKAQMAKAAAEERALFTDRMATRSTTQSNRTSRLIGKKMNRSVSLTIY
The experiment is described as follows: Wee1 time-resolved fluorescence equilibrium binding assay (displacement of Oregon Green-labeled ATP-competitive kinase probe). Conditions: read-out: Wee-1 inhibition (Ki). In a few lines:
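Ki values derive from competitive displacement, under equilibrium, of a fast-reversible ATP-site Oregon Green kinase probe from GST-tagged Wee1, detected by time-resolved fluorescence.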
As to `CS(=O)(=O)N1CCc2cc(Nc3ncc4c(=O)n(-c5c(Cl)cccc5Cl)c5nccn5c4n3)ccc2C1` [Example 330, 6-(2,6-dichlorophenyl)-2-{[2-(methylsulfonyl)-1,2,3,4-tetrahydroisoquinolin-6-yl]amino}imidazo[1,2-a]pyrimido[5,4-e]pyrimidin-5(6H)-one], the inhibitory constant (Ki) was under 0.01 µM.

Turning to `CC(=O)N1CCc2cc(Nc3ncc4c(=O)n(-c5c(Cl)cccc5Cl)c5nccn5c4n3)ccc2C1` [Example 331, 2-[(2-acetyl-1,2,3,4-tetrahydroisoquinolin-6-yl)amino]-6-(2,6-dichlorophenyl)imidazo[1,2-a]pyrimido[5,4-e]pyrimidin-5(6H)-one], the Ki is under 0.01 µM.

Regarding `CN1CCN(c2ccc(Nc3ncc4c(=S)n(-c5ccccc5Cl)c5nccn5c4n3)cc2)CC1` [Example 332, 6-(2-chlorophenyl)-2-{[4-(4-methylpiperazin-1-yl)phenyl]amino}imidazo[1,2-a]pyrimido[5,4-e]pyrimidine-5(6H)-thione], the Ki was under 0.01 µM.

As for `CN1CCN(c2ccc(Nc3ncc4c(=N)n(-c5ccccc5Cl)c5nccn5c4n3)cc2)CC1` [Example 333, 6-(2-chlorophenyl)-5-imino-N-[4-(4-methylpiperazin-1-yl)phenyl]-5,6-dihydroimidazo[1,2-a]pyrimido[5,4-e]pyrimidin-2-amine], the Ki was under 0.01 µM.

Regarding `CN1Cc2cc(Nc3ncc4c(=S)n(-c5ccccc5Cl)c5nccn5c4n3)ccc2C(C)(C)C1` [Example 334, 6-(2-chlorophenyl)-2-[(2,4,4-trimethyl-1,2,3,4-tetrahydroisoquinolin-7-yl)amino]imidazo[1,2-a]pyrimido[5,4-e]pyrimidine-5(6H)-thione], the Ki is under 0.01 µM.

Turning to `CN1Cc2cc(Nc3ncc4c(=N)n(-c5ccccc5Cl)c5nccn5c4n3)ccc2C(C)(C)C1` [Example 335, 6-(2-chlorophenyl)-5-imino-N-(2,4,4-trimethyl-1,2,3,4-tetrahydroisoquinolin-7-yl)-5,6-dihydroimidazo[1,2-a]pyrimido[5,4-e]pyrimidin-2-amine], the Ki was under 0.01 µM.

In the case of `CN1CCN(c2ccc(Nc3ncc4c(=O)n(-c5cccc(F)c5)c5nccn5c4n3)cc2)CC1` [Example 336, 6-(3-fluorophenyl)-2-{[4-(4-methylpiperazin-1-yl)phenyl]amino}imidazo[1,2-a]pyrimido[5,4-e]pyrimidin-5(6H)-one], the inhibitory constant (Ki) was in the range of 0.01 to 0.1 µM.

Turning to `CN1CCN(c2ccc(Nc3ncc4c(=O)n(-c5cccc(Cl)c5)c5nccn5c4n3)cc2)CC1` [Example 337, 6-(3-chlorophenyl)-2-{[4-(4-methylpiperazin-1-yl)phenyl]amino}imidazo[1,2-a]pyrimido[5,4-e]pyrimidin-5(6H)-one], the Ki is over 0.1 µM.

Regarding `COc1ccc(-n2c(=O)c3cnc(Nc4ccc(N5CCN(C)CC5)cc4)nc3n3ccnc23)c(OC)c1` [Example 338, 6-(2,4-dimethoxyphenyl)-2-{[4-(4-methylpiperazin-1-yl)phenyl]amino}imidazo[1,2-a]pyrimido[5,4-e]pyrimidin-5(6H)-one], the inhibition constant (Ki) is over 0.1 µM.

Take `CCN1CCN(c2ccc(Nc3ncc4c(=O)n(-c5ccccc5Cl)c5nccn5c4n3)nc2)CC1` [Example 339, 6-(2-chlorophenyl)-2-{[5-(4-ethylpiperazin-1-yl)pyridin-2-yl]amino}imidazo[1,2-a]pyrimido[5,4-e]pyrimidin-5(6H)-one]: the Ki was over 0.1 µM.

With `CN1CCN(c2ccc(Nc3ncc4c(=O)n(-c5ccc(C(F)(F)F)cc5Cl)c5nccn5c4n3)cc2)CC1` [Example 340, 6-[2-chloro-4-(trifluoromethyl)phenyl]-2-{[4-(4-methylpiperazin-1-yl)phenyl]amino}imidazo[1,2-a]pyrimido[5,4-e]pyrimidin-5(6H)-one], the Ki was over 0.1 µM.

Turning to `CN1CCN(c2ccc(Nc3ncc4c(=O)n(-c5ccccc5OC(F)(F)F)c5nccn5c4n3)cc2)CC1` [Example 341, 2-{[4-(4-methylpiperazin-1-yl)phenyl]amino}-6-[2-(trifluoromethoxy)phenyl]imidazo[1,2-a]pyrimido[5,4-e]pyrimidin-5(6H)-one], the Ki is over 0.1 µM.

Turning to `O=C(O)c1ccc(Nc2ncc3c(=O)n(-c4ccccc4Cl)c4nccn4c3n2)cc1` [Example 342, 4-{[6-(2-chlorophenyl)-5-oxo-5,6-dihydroimidazo[1,2-a]pyrimido[5,4-e]pyrimidin-2-yl]amino}benzoic acid], the Ki was over 0.1 µM.

Take `O=c1c2cnc(Nc3ccc(Br)cc3)nc2n2ccnc2n1-c1ccccc1Cl` [Example 343, 2-[(4-bromophenyl)amino]-6-(2-chlorophenyl)imidazo[1,2-a]pyrimido[5,4-e]pyrimidin-5(6H)-one]: the inhibition constant (Ki) lay in the range of 0.01 to 0.1 µM.

For the compound `COc1cccc(-n2c(=O)c3cnc(Nc4ccccc4)nc3n3ccnc23)c1C` [Example 344, 6-(3-methoxy-2-methylphenyl)-2-(phenylamino)imidazo[1,2-a]pyrimido[5,4-e]pyrimidin-5(6H)-one], the inhibition constant (Ki) is over 0.1 µM.

As to `Cc1cc(Nc2ncc3c(=O)n(-c4c(Cl)cccc4Cl)c4nccn4c3n2)ccc1N1CCCNCC1` [Example 345, 2-{[4-(1,4-diazepan-1-yl)-3-methylphenyl]amino}-6-(2,6-dichlorophenyl)imidazo[1,2-a]pyrimido[5,4-e]pyrimidin-5(6H)-one], the Ki lay in the range of 0.01 to 0.1 µM.

As for `CC(C)n1c(=O)c2cnc(Nc3ccc(N4CCN(C)CC4)cc3)nc2n2ccnc12` [Example 346, 2-{[4-(4-methylpiperazin-1-yl)phenyl]amino}-6-(propan-2-yl)imidazo[1,2-a]pyrimido[5,4-e]pyrimidin-5(6H)-one], the inhibitory constant (Ki) was in the range of 0.01 to 0.1 µM.

`CN1CCN(c2c(F)cc(Nc3ncc4c(=O)n(-c5ccccc5Cl)c5nccn5c4n3)cc2F)CC1` [Example 347, 6-(2-chlorophenyl)-2-{[3,5-difluoro-4-(4-methylpiperazin-1-yl)phenyl]amino}imidazo[1,2-a]pyrimido[5,4-e]pyrimidin-5(6H)-one]: the Ki is over 0.1 µM.

As for `O=c1c2cnc(Nc3ccc(C(F)(F)F)cc3)nc2n2ccnc2n1-c1ccccc1Cl` [Example 348, 6-(2-chlorophenyl)-2-{[4-(trifluoromethyl)phenyl]amino}imidazo[1,2-a]pyrimido[5,4-e]pyrimidin-5(6H)-one], the inhibition constant (Ki) is over 0.1 µM.

In the case of `O=c1c2cnc(Nc3ccc(-c4cscn4)cc3)nc2n2ccnc2n1-c1ccccc1Cl` [Example 349, 6-(2-chlorophenyl)-2-{[4-(1,3-thiazol-4-yl)phenyl]amino}imidazo[1,2-a]pyrimido[5,4-e]pyrimidin-5(6H)-one], the inhibition constant Ki lay within 0.01 to 0.1 µM.

On to `O=c1c2cnc(Nc3ccc(-c4nccs4)cc3)nc2n2ccnc2n1-c1ccccc1Cl` [Example 350, 6-(2-chlorophenyl)-2-{[4-(1,3-thiazol-2-yl)phenyl]amino}imidazo[1,2-a]pyrimido[5,4-e]pyrimidin-5(6H)-one], for which the Ki fell in the range of 0.01 to 0.1 µM.

In the case of `O=c1c2cnc(Nc3ccc(-c4ccc5cccnc5n4)cc3)nc2n2ccnc2n1-c1ccccc1Cl` [Example 351, 6-(2-chlorophenyl)-2-{[4-(1,8-naphthyridin-2-yl)phenyl]amino}imidazo[1,2-a]pyrimido[5,4-e]pyrimidin-5(6H)-one], the inhibitory constant (Ki) lay within 0.01 to 0.1 µM.

For the compound `O=c1c2cnc(Nc3ccc(N4CCC[C@H]4C(F)(F)F)cc3)nc2n2ccnc2n1-c1ccccc1Cl` [Example 352, 6-(2-chlorophenyl)-2-({4-[(2S)-2-(trifluoromethyl)pyrrolidin-1-yl]phenyl}amino)imidazo[1,2-a]pyrimido[5,4-e]pyrimidin-5(6H)-one], the Ki lay within 0.01 to 0.1 µM.

As for `CN1CCN(c2c(Cl)cc(Nc3ncc4c(=O)n(-c5ccccc5Cl)c5nccn5c4n3)cc2C(F)(F)F)CC1` [Example 353, 2-{[3-chloro-4-(4-methylpiperazin-1-yl)-5-(trifluoromethyl)phenyl]amino}-6-(2-chlorophenyl)imidazo[1,2-a]pyrimido[5,4-e]pyrimidin-5(6H)-one], the inhibition constant (Ki) is over 0.1 µM.

As for `O=c1c2cnc(Nc3cc(Cl)c(N4CCNCC4)c(C(F)(F)F)c3)nc2n2ccnc2n1-c1ccccc1Cl` [Example 354, 6-(2-chlorophenyl)-2-{[3-chloro-4-(piperazin-1-yl)-5-(trifluoromethyl)phenyl]amino}imidazo[1,2-a]pyrimido[5,4-e]pyrimidin-5(6H)-one], the inhibition constant (Ki) was over 0.1 µM.

On to `CN1Cc2cc(Nc3ncc4c(=S)n(-c5ccccc5Cl)c5nccn5c4n3)ccc2C2(CC2)C1` [Example 355, 6-(2-chlorophenyl)-2-[(2′-methyl-2′,3′-dihydro-1′H-spiro[cyclopropane-1,4′-isoquinolin]-7′-yl)amino]imidazo[1,2-a]pyrimido[5,4-e]pyrimidine-5(6H)-thione], for which the inhibition constant (Ki) was under 0.01 µM.

For `CC1(C)CN(Cc2ccccc2C#N)Cc2cc(Nc3ncc4c(=O)n(-c5ccccc5Cl)c5nccn5c4n3)ccc21` [Example 356, 2-{[7-{[6-(2-chlorophenyl)-5-oxo-5,6-dihydroimidazo[1,2-a]pyrimido[5,4-e]pyrimidin-2-yl]amino}-4,4-dimethyl-3,4-dihydroisoquinolin-2(1H)-yl]methyl}benzonitrile], the Ki was in the range of 0.01 to 0.1 µM.

Turning to `CCCOc1ccc(CN2Cc3cc(Nc4ncc5c(=O)n(-c6ccccc6Cl)c6nccn6c5n4)ccc3C(C)(C)C2)cc1` [Example 357, 6-(2-chlorophenyl)-2-{[4,4-dimethyl-2-(4-propoxybenzyl)-1,2,3,4-tetrahydroisoquinolin-7-yl]amino}imidazo[1,2-a]pyrimido[5,4-e]pyrimidin-5(6H)-one], the Ki lay within 0.01 to 0.1 µM.

For `CC1(C)CN(Cc2cc(F)cc(C(F)(F)F)c2)Cc2cc(Nc3ncc4c(=O)n(-c5ccccc5Cl)c5nccn5c4n3)ccc21` [Example 358, 6-(2-chlorophenyl)-2-({2-[3-fluoro-5-(trifluoromethyl)benzyl]-4,4-dimethyl-1,2,3,4-tetrahydroisoquinolin-7-yl}amino)imidazo[1,2-a]pyrimido[5,4-e]pyrimidin-5(6H)-one], the inhibitory constant (Ki) lay within 0.01 to 0.1 µM.

As for `C[C@@H]1CCCN1CCc1ccc(Nc2ncc3c(=O)n(-c4ccccc4Cl)c4nccn4c3n2)cc1` [Example 359, 6-(2-chlorophenyl)-2-[(4-{2-[(2R)-2-methylpyrrolidin-1-yl]ethyl}phenyl)amino]imidazo[1,2-a]pyrimido[5,4-e]pyrimidin-5(6H)-one], the Ki fell in the range of 0.01 to 0.1 µM.

What is called Ki is a measure of affinity in units of concentration, obtained from inhibition or displacement.
